According to article PMC8413292, “Small-molecule polymerase inhibitor protects non-human primates from measles and reduces shedding” (Nature Communications, 2021):
“And” between values parts separate entries of the source, which are not always exact repeats. Equal entries are not always repeated. Where two headings read alike, the source gives them in different places.

Legend:
[1] = test system: MV/FrankfurtMain.DEU/17.11 (genotype D8); experiment: Rectal temperature of MeV-infected squirrel monkeys; type: in vivo, squirrel monkeys (Saimiri sciureus); conditions: for Temperature: therapeutic (d7) group, individual animals
Protocol: (§1) All animal experiments were carried out in compliance with the regulations of German animal protection laws and authorized by the Regierungspräsidium Darmstadt, Germany (Dezernat V54 – Veterinärwesen und Verbraucherschutz, Hilpertstrasse 31, 64295 Darmstadt). Adult male and female squirrel monkeys (Saimiri sciureus) were obtained from BioPRIM, 31450 Baziege, or CNRS 0846 Primatologie, 13790 Rousset, France. Each experimental group was housed in a separate room, and animals of the same sex were caged together within the respective groups. For the single-dose pharmacokinetic experiment, animals were anesthetized, and the drug was given through a stomach tube at a concentration of 50 mg/kg bodyweight. Blood samples were collected after 15, 30, and 60 min, and 2, 3, 6, and 24 h. For efficacy assessment, groups of 6 animals were left untreated or treated with 50 mg/kg of ERDRP-0519 twice daily for two weeks, starting either 12 h before or 3 or 7 days after intranasal infection with 10^6 TCID50 of MV/FrankfurtMain.DEU/17.11. Clinical signs, rectal temperature, and weight were recorded daily, and throat swabs and blood samples were collected before infection and twice weekly thereafter. On day 21 post-infection, the animals were euthanized, necropsied, and samples were collected for histological analysis.

[2] = test system: MV/FrankfurtMain.DEU/17.11 (genotype D8); experiment: Neutralizing antibody titers in serum; type: in vivo, squirrel monkeys (Saimiri sciureus); conditions: lower limit of detection = 10
Protocol: White blood cell counts, viral load quantification in PBMCs, and quantification of neutralizing antibody titers were performed as follows: for white blood cell counts, blood was diluted 1:100 in 3% acetic acid and cells were counted using a Neubauer chamber. For viral load quantification in PBMCs, blood was centrifuged at 3000 rpm for 15 min and serum was frozen at −20 °C until further use. Red blood cell lysis was performed and the remaining PBMCs were counted using a Neubauer chamber. Viral titers in PBMCs were quantified in quadruplicates using limited dilution method and calculated as TCID50/10^6 PBMCs. Neutralizing antibody titers were quantified by incubating MeV with 2-fold serial dilutions of the respective serum for 20 min at room temperature in quadruplicates. Vero/hSLAM cells were added and incubated for 3 days at 37 °C. Neutralizing antibody titers are expressed as the reciprocal of the highest serum dilution showing no signs of infection. For virus titration from throat swabs, swabs were placed in 150 μl DMEM with 3% penicillin/streptomycin and the titer was quantified by limited dilution method.

[3] = test system: canine distemper virus (CDV); conditions: lethal CDV-ferret model; cited from earlier work
[4] = Single-dose oral pharmacokinetic study in squirrel monkeys (LC/MS/MS serum concentrations); type: in vivo, squirrel monkeys (Saimiri sciureus); conditions: for tmax: 50 mg/kg oral (intragastric) single dose
Protocol: as §1
Drug concentrations were determined using an internal standard and a reversed phase isocratic HPLC method with positive ion electrospray ionization (ESI) mass spectrometry detection (LC/MS/MS) on an AB-SCIEX API 5500 MS/MS instrument (5 μl injection volume). Pharmacokinetic parameters were estimated using WinNonlin 5.3 (Pharsight).

[5] = Body weight of squirrel monkeys during the efficacy study; type: in vivo, squirrel monkeys (Saimiri sciureus); conditions: all animals throughout the study
Protocol: as §1

[6] = Necropsy and histology (H&E) for pharmacotoxicity; type: in vivo
Text: After euthanasia, each animal was examined for gross pathological changes, and samples were collected for histopathological examination. After fixation, all tissue samples were embedded in paraffin. Histology slices were mounted and stained using standard H&E staining techniques.

[7] = both sexes, monkey, serum, squirrel monkeys, 50 mg/kg oral single dose, n = 3

For `Cn1nc(C(F)(F)F)cc1C(=O)Nc1ccc(S(=O)(=O)N2CCCC[C@H]2CCN2CCOCC2)cc1` [ERDRP-0519], the “Temperature, group mean (Mean 2)” value ([1]; therapeutic (d3), Row 7 (day 21), N = 5) was 39.3, the Temperature ([1]; day 0) was 38.4 °C and 38.3 °C and 38 °C and 37.9 °C (2×) and 38.1 °C and the Temperature ([1]; day 3) was 39.3 °C (2×) and 39.4 °C (2×) and 38.6 °C and 39.2 °C. For the same compound, the Temperature ([1]; day 7) was 40 °C (2×) and 39.2 °C (2×) and 38.7 °C and 39.4 °C, the “Temperature, group mean (Mean 2)” value ([1]; therapeutic (d7), Row 1 (day 0)) was 38.1 and the “Temperature, group mean (Mean 2)” value ([1]; therapeutic (d7), Row 2 (day 3)) was 39.2. For the same compound, the “Temperature, group mean (Mean 2)” value ([1]; therapeutic (d7), Row 3 (day 7)) was 39.42, the “Temperature, group mean (Mean 2)” value ([1]; therapeutic (d7), Row 4 (day 10)) was 39.25 and the “Temperature, group mean (Mean 2)” value ([1]; therapeutic (d7), Row 5 (day 14)) was 39.35. For the same compound, the “Temperature, group mean (Mean 2)” value ([1]; therapeutic (d7), Row 6 (day 17)) was 39.47, the “Temperature, group mean (Mean 2)” value ([1]; therapeutic (d7), Row 7 (day 21)) was 39.32 and the “neutralizing antibody titer, dilution factor [1/dilution]” value (from here on “neutralizing antibody titer”) ([2]; prophylactic group, day 0, individual animals) was 10 1/dilution. The “neutralizing antibody titer” value ([2]; prophylactic group, day 3, individual animals) was 10 1/dilution, the “neutralizing antibody titer” value ([2]; prophylactic group, day 7, individual animals) was 10 1/dilution and the “neutralizing antibody titer” value ([2]; prophylactic group, day 10, individual animals) was 10 1/dilution. The “neutralizing antibody titer” value ([2]; prophylactic group, day 14, individual animals) was 10 1/dilution (3×) and 80 1/dilution and 15 1/dilution and 30 1/dilution, the “neutralizing antibody titer” value ([2]; prophylactic group, day 17, individual animals) was 160 1/dilution and 240 1/dilution and 10 1/dilution (3×) and 17.5 1/dilution and the “neutralizing antibody titer” value ([2]; prophylactic group, day 21, individual animals) was 640 1/dilution and 200 1/dilution and 120 1/dilution and 10 1/dilution (2×) and 35 1/dilution. For the same compound, the “neutralizing antibody titer” value ([2]; therapeutic (d3) group, day 0, individual animals) was 10 1/dilution, the “neutralizing antibody titer” value ([2]; therapeutic (d3) group, day 3, individual animals) was 10 1/dilution and the “neutralizing antibody titer” value ([2]; therapeutic (d3) group, day 7, individual animals) was 10 1/dilution. The “neutralizing antibody titer” value ([2]; therapeutic (d3) group, day 10, individual animals) was 25 1/dilution and 10 1/dilution (2×) and 12.5 1/dilution, the “neutralizing antibody titer” value ([2]; therapeutic (d3) group, day 14, individual animals) was 800 1/dilution and 35 1/dilution and 10 1/dilution and 280 1/dilution and 400 1/dilution and 70 1/dilution and the “neutralizing antibody titer” value ([2]; therapeutic (d3) group, day 17, individual animals) was 200 1/dilution (2×) and 30 1/dilution and 240 1/dilution and 80 1/dilution. For the same compound, the “neutralizing antibody titer” value ([2]; therapeutic (d3) group, day 21, individual animals) was 320 1/dilution (2×) and 70 1/dilution and 140 1/dilution and 120 1/dilution, the “neutralizing antibody titer” value ([2]; therapeutic (d7) group, day 0, individual animals) was 10 1/dilution and the “neutralizing antibody titer” value ([2]; therapeutic (d7) group, day 3, individual animals) was 10 1/dilution (5×) and 12.5 1/dilution. For the same compound, the “neutralizing antibody titer” value ([2]; therapeutic (d7) group, day 7, individual animals) was 10 1/dilution (5×) and 15 1/dilution, the “neutralizing antibody titer” value ([2]; therapeutic (d7) group, day 10, individual animals) was 20 1/dilution and 12.5 1/dilution and the “survival after post-exposure therapeutic dosing” value [3] was “complete survival of all treated animals”. For the same compound, the concentration at 2 h ([4]; 50 mg/kg oral, 0.25 h post-application, individual animals, read-out: ERDRP-0519 serum conc.) was 672.2 nM and 1545 nM and 3833 nM, the concentration at 2 h ([4]; 50 mg/kg oral, 0.5 h post-application, individual animals, read-out: ERDRP-0519 serum conc.) was 691.1 nM and 917.7 nM and 3493 nM and the concentration at 2 h ([4]; 50 mg/kg oral, 1 h post-application, individual animals, read-out: ERDRP-0519 serum conc.) was 1158 nM and 2002 nM and 3607 nM. For the same compound, the concentration at 2 h ([4]; 50 mg/kg oral, 2 h post-application, individual animals, read-out: ERDRP-0519 serum conc.) was 3078 nM and 3040 nM, the concentration at 2 h ([4]; 50 mg/kg oral, 3 h post-application, individual animals, read-out: ERDRP-0519 serum conc.) was 2889 nM and 2172 nM and the concentration at 2 h ([4]; 50 mg/kg oral, 6 h post-application, individual animals, read-out: ERDRP-0519 serum conc.) was 1259.5 nM and 991.4 nM. The concentration at 2 h ([4]; 50 mg/kg oral, 24 h post-application, individual animals, read-out: ERDRP-0519 serum conc.) was 39.09 nM and 98 nM and 77.99 nM, the concentration at 0 h ([4]; both sexes, monkey, serum, oral, 50 mg/kg, 50 mg/kg oral, 0 h post-application, individual animals, read-out: ERDRP-0519 serum conc.) was 0 nM and the concentration at 2 h ([4]; both sexes, monkey, serum, oral, 50 mg/kg, 50 mg/kg oral, 2 h post-application, individual animals, read-out: ERDRP-0519 serum conc.) was 2490 nM. The concentration at 3 h ([4]; both sexes, monkey, serum, oral, 50 mg/kg, 50 mg/kg oral, 3 h post-application, individual animals, read-out: ERDRP-0519 serum conc.) was 2510 nM, the concentration at 6 h ([4]; both sexes, monkey, serum, oral, 50 mg/kg, 50 mg/kg oral, 6 h post-application, individual animals, read-out: ERDRP-0519 serum conc.) was 1340 nM and the tmax ([4]; both sexes, monkey, serum, po, 50 mg/kg, squirrel monkeys, n = 3, read-out: tmax) was 1.8 h. For the same compound, the AUC(0-inf) [4, 7] was 24.4 µM·h, the Cmax [4, 7] was 3270 nM and the half-life ([4]; both sexes, monkey, serum, squirrel monkeys, 50 mg/kg oral single dose, n = 3, read-out: t1/2 terminal elimination half-life (converted)) was 4.2 h. The tmax ([4]; squirrel monkeys, n = 3, 50 mg/kg) was ~ 2 h, the Body weight changes [5] was “negligible” and the “histological signs of pharmacotoxicity” value ([6]; all monkeys, day 21, 50 mg/kg b.i.d. 14 days) was “No histological signs of pharmacotoxicity were detected”. The “liver histology of the deceased animal versus untreated control” value ([6]; day 3 therapeutic group animal deceased day 15) was “no pathological alternations”.
